# Assay results taken from publication PMC4975955 (Journal of molecular biology, 2016).
# How the values were obtained:
# [1] = molecular target: TmRibUΔCt (Thermotoga maritima, UniProt Q9X1G6); assay: X-ray crystallography, […] Å; assay type: binding; details: co-purified substrate; extracellular pocket of TM4-6 and Loop1-2
# [2] = molecular target: TmRibU (Thermotoga maritima, UniProt Q9X1G6, N123A); assay: thermal melting by analytical SEC peak height; assay type: binding; details: NG detergent; difference of mutant to wild-type complex, no apo reference
# Sequence of TmRibU (Q9X1G6 whole entry N123A): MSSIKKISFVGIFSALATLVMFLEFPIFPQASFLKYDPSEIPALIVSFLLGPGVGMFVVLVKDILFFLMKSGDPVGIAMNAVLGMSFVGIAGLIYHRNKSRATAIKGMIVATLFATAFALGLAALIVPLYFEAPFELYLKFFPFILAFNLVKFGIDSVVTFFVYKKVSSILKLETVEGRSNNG
# Sequence of TmRibUΔCt (Q9X1G6 1-173, stated change not applied): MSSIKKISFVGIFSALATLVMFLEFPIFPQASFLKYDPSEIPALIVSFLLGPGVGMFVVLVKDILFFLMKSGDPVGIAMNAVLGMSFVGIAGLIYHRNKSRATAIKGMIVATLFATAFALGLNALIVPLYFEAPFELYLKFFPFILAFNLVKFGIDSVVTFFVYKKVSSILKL
compound,measurement,setting,value
Cc1cc2nc3c(=O)[nH]c(=O)nc-3n(C[C@H](O)[C@H](O)[C@H](O)CO)c2cc1C [riboflavin],"X-ray crystallography, 2.6 Å (also 3.2 and 3.4 Å)",[1],we determined the crystal structure of riboflavin-bound TmRibU
same,decrease of Tm of riboflavin complex vs WT,[2],~ 23 °C
